Laboratory results from US8859620B2, “Phthalanilate compounds and methods of use” (University of Notre Dame du Lac, priority 2009, dated 2014).
Values after ≈ are worked out from the molar mass of the structure shown. Where two headings read alike, the source gives them in different places.

What was measured:
[1] = target: TEM-1 (class A β-lactamase) (Escherichia coli, UniProt P62593); assay: β-Lactamase assay (nitrocefin colour change), TEM-1; assay type: biochemical; settings: Table 10; class symbols x/xx/xxx, key not given
Description: (§1) β-Lactamase Assays (TEM-1, P99, and OXA-10): The activity of the compounds of the invention (inhibitors) toward β-lactamases was evaluated using 96 well plates. The reaction mixture included 10 mM sodium phosphate, pH 7.0, 150 mM sodium chloride, 0.01% Triton X-100, 100 μM nitrocefin, 10 nM of β-lactamases (class A: TEM-1; class C: P99, or class D: OXA-10), and variable concentrations of the inhibitors in a total volume of 100 μL. β-Lactamases were pre-incubated with the compounds at room temperature for 5 minutes, and the assay was initiated by the addition of nitrocefin. The inhibition of the enzyme activity by the compounds was determined by monitoring color change (from yellow to red) of nitrocefin after 20 minutes. Stock solutions of the compounds were prepared in dimethyl sulfoxide (DMSO). No more than 5% DMSO was present in assays, unless noted otherwise. B1aR Assay: The surface domain of B1aR (1 μM) was added to each inhibitor (at various concentrations) in 100 mM sodium phosphate, 50 mM sodium bicarbonate, at pH 7.0. The reaction mixtures were incubated at room temperature for 20 minutes. BOCILLIN FL, a fluorogenic ligand, was added to a concentration of 20 μM in a final volume of 20 μL. The mixtures were incubated at 37° C. for 5 minutes, at which point the reactions were quenched by the addition of 15 μL of the SDS sample buffer (125 mM Tris, 4% SDS, 20% glycerol, 2% 2-mercaptoethanol, pH 6.8), and were boiled for 4 minutes. The samples were loaded onto 15% SDS-PAGE, the gel was developed and scanned using a Storm 840® Fluorimager. The fluorescent bands of BOCILLIN FL-labeled B1aR^S were analyzed by Image Quant 5.2 software. PBP2 Assay: The PBP2 assay was performed according to the methods of Villegas-Esterada et al. (J. Am. Chem. Soc. 2008, 130, 9212-9213).

[2] = target: P99 (class C β-lactamase) (Enterobacter cloacae, UniProt P05364); assay: β-Lactamase assay (nitrocefin colour change), P99; assay type: biochemical; settings: Table 10; class symbols x/xx/xxx, key not given
Description: as §1

[3] = target: OXA-10 (class D β-lactamase) (Pseudomonas aeruginosa, UniProt P14489); assay: β-Lactamase assay (nitrocefin colour change), OXA-10; assay type: biochemical; settings: Table 10; class symbols x/xx/xxx, key not given
Description: as §1

S. aureus NRS100 (Mec^R) = assay: MIC against S. aureus NRS100 (Table 14); assay type: cell-based, Staphylococcus aureus; settings: for MIC: compounds dissolved in DMSO or 1% sodium carbonate
Description: The recited compounds were dissolved in DMSO or in 1% sodium carbonate and transferred into micro titer plate to final concentration of 1000 μg/mL.

S. aureus NRS11 (Mec^S) = assay: MIC against S. aureus NRS11 (Table 13); assay type: cell-based, Staphylococcus aureus; settings: for MIC: compounds dissolved in DMSO or 1% sodium carbonate
Description: All recited compounds were dissolved in DMSO or in 1% sodium carbonate and transferred to micro titer plates to final concentrations of 1000 μg/mL.

[4] = Staphylococcus aureus, read-out: MIC

TEM-1 (class A β-lactamase), sequence (P62593 24-286 limits assumed): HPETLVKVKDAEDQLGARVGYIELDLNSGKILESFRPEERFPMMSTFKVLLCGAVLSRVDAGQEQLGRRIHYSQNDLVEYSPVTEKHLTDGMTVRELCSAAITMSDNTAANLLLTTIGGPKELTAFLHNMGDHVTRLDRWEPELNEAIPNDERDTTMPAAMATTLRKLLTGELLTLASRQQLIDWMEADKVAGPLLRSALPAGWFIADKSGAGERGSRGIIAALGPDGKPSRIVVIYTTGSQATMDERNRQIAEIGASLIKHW
P99 (class C β-lactamase), sequence (P05364 21-381): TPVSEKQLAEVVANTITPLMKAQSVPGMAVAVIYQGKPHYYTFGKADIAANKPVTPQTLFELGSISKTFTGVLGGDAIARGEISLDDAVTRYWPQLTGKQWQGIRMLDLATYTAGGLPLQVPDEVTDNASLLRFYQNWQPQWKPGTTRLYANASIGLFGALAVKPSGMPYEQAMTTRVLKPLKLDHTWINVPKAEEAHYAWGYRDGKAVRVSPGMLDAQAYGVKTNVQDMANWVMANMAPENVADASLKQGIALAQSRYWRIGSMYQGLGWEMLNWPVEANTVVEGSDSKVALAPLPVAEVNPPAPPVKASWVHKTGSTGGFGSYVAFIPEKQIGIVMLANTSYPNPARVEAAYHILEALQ
OXA-10 (class D β-lactamase), sequence (P14489 20-266, species assumed): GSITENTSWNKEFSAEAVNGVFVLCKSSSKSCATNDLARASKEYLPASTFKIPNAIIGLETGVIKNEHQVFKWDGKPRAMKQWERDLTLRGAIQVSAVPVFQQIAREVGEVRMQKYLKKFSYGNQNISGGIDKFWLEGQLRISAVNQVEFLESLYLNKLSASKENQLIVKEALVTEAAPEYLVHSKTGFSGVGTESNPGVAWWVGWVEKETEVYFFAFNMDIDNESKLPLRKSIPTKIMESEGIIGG

## O=C(Nc1ccc(Cl)c(C(F)(F)F)c1)c1cccc([N+](=O)[O-])c1C(=O)O [Compound 86]
[1]
  TEM-1: xx

## O=C(O)c1c(Br)c(Br)c(Br)c(Br)c1C(=O)Nc1ccc(Cl)c(C(F)(F)F)c1 [Compound 89]
[2]
  P99: xxx
[1]
  TEM-1: xx
[3]
  OXA-10: xxx

## CC(=O)OCC1=C(C(=O)O)N2C(=O)C(N3C(=O)C4=C(SCCS4)C3=O)C2SC1 (centres unmarked) [Compound 118]
[2]
  P99: xxx

## NC(=O)C1=C(C(=O)O)SCCS1 [Compound 120]
[3]
  OXA-10: xx

## O=C1C2=C(SCCS2)C(=O)N1C(CO)[C@H](O)c1ccccc1 (some centres unmarked) [Compound 138]
[2]
  P99: xxx
[1]
  TEM-1: xxx

## O=C1C2=C(SCCS2)C(=O)N1[C@@H](CO)[C@@H](O)c1ccc([N+](=O)[O-])cc1 [Compound 140]
[2]
  P99: xx
[1]
  TEM-1: xx
[3]
  OXA-10: xx

## O=C(O)c1c(Br)c(Br)c(Br)c(Br)c1C(=O)Nc1cccc(C(F)(F)F)c1 [Compound 196]
[2]
  P99: xx
[1]
  TEM-1: xx

## N#Cc1cccc(NC(=O)c2c(Br)c(Br)c(Br)c(Br)c2C(=O)[O-])c1.[Na+] [Compound 201]
[2]
  P99: xxx
[1]
  TEM-1: xx
[3]
  OXA-10: xx

## O=C(O)c1c(Br)c(Br)c(Br)c(Br)c1C(=O)Nc1ccc(CO)cc1 [Compound 223]
[2]
  P99: xxx
[1]
  TEM-1: xxx
[3]
  OXA-10: xxx

## O=C1c2c(Br)c(Br)c(Br)c(Br)c2C(=O)N1c1ccc(OCc2ccccc2)c(Cl)c1 [Compound 227]
[1]
  TEM-1: xxx
[3]
  OXA-10: xxx

## CCCCCCCCOc1ccc(N2C(=O)c3c(Br)c(Br)c(Br)c(Br)c3C2=O)cc1 [Compound 230]
S. aureus NRS100 (Mec^R); [4]
  MIC: > 16 µg/mL

## O=C(O)CC1(CC(=O)Nc2ccc(Cl)c(C(F)(F)F)c2)CCCC1 [Compound 246]
[3]
  OXA-10: xx

## O=C(O)c1c(Cl)c(Cl)c(Cl)c(Cl)c1C(=O)Nc1ccc(CO)cc1 [Compound 254]
[3]
  OXA-10: xx

## O=C(O)c1c(Cl)c(Cl)c(Cl)c(Cl)c1C(=O)Nc1ccc(Cl)c(C(F)(F)F)c1 [Compound 258]
[2]
  P99: xx
[1]
  TEM-1: xxx
[3]
  OXA-10: xx

## O=C(O)c1c(Cl)c(Cl)c(Cl)c(Cl)c1C(=O)Nc1cccc(Oc2ccccc2)c1 [Compound 268]
[2]
  P99: xx
[1]
  TEM-1: xxx

## CCCCCCCCOc1ccc(N(C)C(=O)c2c(Cl)c(Cl)c(Cl)c(Cl)c2C(=O)OC)cc1 [Compound 282]
[3]
  OXA-10: xxx

## CCCCCCCCOc1ccc(N)cc1Cl [Compound 299]
S. aureus NRS100 (Mec^R); [4]
  MIC: 16 µg/mL (≈ 62.6 µM)

## CCCCCCCCOc1ccc(N(C)C(=O)c2c(F)c(F)c(F)c(F)c2C(=O)O)cc1 [Compound 305]
[2]
  P99: xx
[3]
  OXA-10: xx
S. aureus NRS100 (Mec^R); [4]
  MIC: 16 µg/mL (≈ 35.1 µM)

## CCCCCCCCOc1ccc(N(C)C(=O)c2c(Br)c(Br)c(Br)c(Br)c2C(=O)O)cc1 [Compound 307]
[3]
  OXA-10: xxx

## CCCCOC(=O)c1ccc(NC(=O)Nc2ccccc2C(=O)O)cc1 [Compound 325]
S. aureus NRS11 (Mec^S)
  MIC: 256 µg/mL (≈ 718 µM)
S. aureus NRS100 (Mec^R)
  MIC: 256 µg/mL (≈ 718 µM)

## CCCCOC(=O)c1ccc(NC(=O)N(C)c2ccccc2C(=O)O)cc1 [Compound 326]
S. aureus NRS11 (Mec^S)
  MIC: 2,000 μg/mL
S. aureus NRS100 (Mec^R)
  MIC: 2,000 μg/mL

## CC(C)C[C@@H](C(=O)O)C(C(=O)O)C(=O)OC(C)(C)C (some centres unmarked) [Compound 330]
S. aureus NRS11 (Mec^S)
  MIC: 2,000 μg/mL
S. aureus NRS100 (Mec^R)
  MIC: 2,000 μg/mL

## CCCCOC(=O)c1ccc(NC(=O)c2ccccc2C(=O)O)cc1 [Compound 331]
S. aureus NRS11 (Mec^S); [4]
  MIC: 2000 µg/mL (≈ 5860 µM)
S. aureus NRS100 (Mec^R); [4]
  MIC: 2000 µg/mL (≈ 5860 µM)

## CCCCOC(=O)c1ccc(NC(=O)c2c(F)c(F)c(F)c(F)c2C(=O)O)cc1 [Compound 332]
S. aureus NRS11 (Mec^S); [4]
  MIC: 2000 µg/mL (≈ 4840 µM)
S. aureus NRS100 (Mec^R); [4]
  MIC: 2000 µg/mL (≈ 4840 µM)

## CCCCOC(=O)c1ccc(NC(=O)c2c(Br)c(Br)c(Br)c(Br)c2C(=O)O)cc1 [Compound 334]
S. aureus NRS11 (Mec^S); [4]
  MIC: 128 µg/mL (≈ 195 µM)
S. aureus NRS100 (Mec^R); [4]
  MIC: 128 µg/mL (≈ 195 µM)

## CCCCOC(=O)c1ccc(NC(=O)C2CCC(C)CC2C(=O)O)cc1 (centres unmarked) [Compound 337]
S. aureus NRS11 (Mec^S)
  MIC: 2,000 μg/mL
S. aureus NRS100 (Mec^R)
  MIC: 2,000 μg/mL

## CCCCCCCCOc1ccc(NC(=O)c2ccccc2C(=O)O)cn1 [Compound 343]
S. aureus NRS11 (Mec^S); [4]
  MIC: 256 µg/mL (≈ 691 µM)
S. aureus NRS100 (Mec^R); [4]
  MIC: 256 µg/mL (≈ 691 µM)

## CCCCCCCCOc1ccc(NC(=O)c2c(F)c(F)c(F)c(F)c2C(=O)O)cn1 [Compound 344]
S. aureus NRS11 (Mec^S); [4]
  MIC: 256 µg/mL (≈ 579 µM)
S. aureus NRS100 (Mec^R); [4]
  MIC: 256 µg/mL (≈ 579 µM)

## O=C(O)c1c(F)c(F)c(F)c(F)c1C(=O)Nc1ccc(OCC(O)COCC2CC2)c(Cl)c1 (centres unmarked) [Compound 354]
S. aureus NRS11 (Mec^S)
  MIC: 500 µg/mL (≈ 1020 µM)
S. aureus NRS100 (Mec^R)
  MIC: 500 µg/mL (≈ 1020 µM)

## CCCCCCCCOc1ccc(NC(=O)c2ccccc2C(=O)O)c[n+]1[O-] [Compound 357]
S. aureus NRS11 (Mec^S); [4]
  MIC: > 2000 µg/mL
S. aureus NRS100 (Mec^R); [4]
  MIC: > 2000 µg/mL

## CCCCCCCCOc1ccc(NC(=O)c2c(Cl)c(Cl)c(Cl)c(Cl)c2C(=O)O)c[n+]1[O-] [Compound 358]
[3]
  OXA-10: xxx

## CCCCCCCCOc1ccc(NC(=O)c2c(F)c(F)c(F)c(F)c2C(=O)O)c[n+]1[O-] [Compound 359]
S. aureus NRS11 (Mec^S); [4]
  MIC: 1000 µg/mL (≈ 2180 µM)
S. aureus NRS100 (Mec^R); [4]
  MIC: 1000 µg/mL (≈ 2180 µM)

## CCCCCCCCOc1ccc(NC(=O)c2c(Br)c(Br)c(Br)c(Br)c2C(=O)O)c[n+]1[O-] [Compound 360]
[1]
  TEM-1: xx
[3]
  OXA-10: xxx

## O=C(O)c1c(F)c(F)c(F)c(F)c1C(=O)Nc1ccc(OCc2ccccc2)nc1 [Compound 363]
S. aureus NRS11 (Mec^S)
  MIC: >2,000 μg/mL
S. aureus NRS100 (Mec^R)
  MIC: >2,000 μg/mL

## O=C(O)c1c(Br)c(Br)c(Br)c(Br)c1C(=O)Nc1ccc(OCc2ccccc2)nc1 [Compound 365]
[3]
  OXA-10: xx
S. aureus NRS11 (Mec^S); [4]
  MIC: 8 µg/mL (≈ 12 µM)
S. aureus NRS11 (Mec^S); Table 13
  inhibitory properties (in words): significant inhibitory properties
S. aureus NRS100 (Mec^R); [4]
  MIC: 16 µg/mL (≈ 24.1 µM)
S. aureus NRS100 (Mec^R); Table 14
  inhibitory activity (in words): significant inhibitory activity

## CC(Oc1ccc(NC(=O)c2ccccc2C(=O)O)cc1Cl)c1ccccc1 (centres unmarked) [Compound 379]
S. aureus NRS11 (Mec^S)
  MIC: >2,000 μg/mL
S. aureus NRS100 (Mec^R)
  MIC: >2,000 μg/mL

## Cc1ccccc1COc1ccc(NC(=O)c2ccccc2C(=O)O)cc1Cl [Compound 383]
S. aureus NRS11 (Mec^S)
  MIC: 128 µg/mL (≈ 323 µM)
S. aureus NRS100 (Mec^R)
  MIC: 128 µg/mL (≈ 323 µM)

## CC(Oc1ccc(NC(=O)c2c(C(=O)O)cccc2[N+](=O)[O-])cc1Cl)c1ccccc1 (centres unmarked) [Compound 391]
S. aureus NRS11 (Mec^S)
  MIC: 500 µg/mL (≈ 1130 µM)
S. aureus NRS100 (Mec^R)
  MIC: 500 µg/mL (≈ 1130 µM)

## O=C(O)c1cccc([N+](=O)[O-])c1C(=O)Nc1ccc(OCc2ccccc2)nc1 [Compound 392]
S. aureus NRS11 (Mec^S)
  MIC: 500 µg/mL (≈ 1270 µM)
S. aureus NRS100 (Mec^R)
  MIC: 500 µg/mL (≈ 1270 µM)

## COCCOCCOc1ccc(NC(=O)c2c(F)c(F)c(F)c(F)c2C(=O)O)cn1 [Compound 401]
S. aureus NRS11 (Mec^S)
  MIC: >2,000 μg/mL
S. aureus NRS100 (Mec^R)
  MIC: >2,000 μg/mL

## COCCOCCOc1ccc(NC(=O)c2c(Br)c(Br)c(Br)c(Br)c2C(=O)O)cn1 [Compound 403]
S. aureus NRS11 (Mec^S)
  MIC: >2,000 μg/mL
S. aureus NRS100 (Mec^R)
  MIC: >2,000 μg/mL

## COCCOCCOc1ccc(NC(=O)c2c(Br)c(Br)c(Br)c(Br)c2C(=O)O)c[n+]1[O-] [Compound 410]
S. aureus NRS11 (Mec^S); [4]
  MIC: 500 µg/mL (≈ 723 µM)
S. aureus NRS100 (Mec^R); [4]
  MIC: 500 µg/mL (≈ 723 µM)

## O=C(O)c1cccc([N+](=O)[O-])c1C(=O)Nc1ccc(OCc2cccc(OC(F)(F)F)c2)c(Cl)c1 [Compound 421]
S. aureus NRS100 (Mec^R); [4]
  MIC: 250 µg/mL (≈ 489 µM)

## O=C(O)c1cccnc1C(=O)Nc1ccc(OCc2cccc(OC(F)(F)F)c2)c(Cl)c1 [Compound 423]
S. aureus NRS100 (Mec^R); [4]
  MIC: 250 µg/mL (≈ 536 µM)

## O=C(O)c1ccncc1C(=O)Nc1ccc(OCc2cccc(OC(F)(F)F)c2)c(Cl)c1 [Compound 424]
S. aureus NRS100 (Mec^R); [4]
  MIC: > 250 µg/mL
